Legend:
Type in all cases: cell-based, human
COX-2 = assay: Cytokine-induced COX-2 protein expression in HT-29 cells (Western blot)
Description: (§1) Human colon carcinoma cell lines HT-29 was obtained from the American Type Culture Collection (Manassas, Va.). The cells were maintained in Dulbecco's modification of Eagle's medium (DMEM) supplemented with 10% FBS and 1% penicillin/streptomycin at 37° C. and 5% CO2. The cytokine mixture, consisting of 10 ng/ml of TNF-α, IFN-γ and LPS, was used to induce iNOS and COX-2, unless otherwise mentioned. The cells were treated with the test compound either alone or in combination with cytokines for different time intervals and harvested for protein or RNA.
The cell culture conditions and the reagents used in this example were described in Example 32. Whole cell extracts were collected after the various treatments and analyzed by western blotting. The protein samples were separated on 4-15% SDS-PAGE gels (Biorad, Hercules, Calif.) followed by transfer to a polyvinylidene fluoride membrane. The membranes were blocked with 5% milk in Tris buffer for 1 h and then incubated with the appropriate primary antibody solutions overnight at 4° C. The membranes were washed with Tris buffer, and incubated with horseradish peroxidase conjugated secondary antibody solutions for 1 h at room temperature.
The protein bands were visualized using a chemiluminescence based kit from Amersham Biosciences (Buckinghamshire, UK). […]

HT-29 cells = assay: [3H]Thymidine incorporation cell proliferation assay in HT-29 cells; conditions: Homo sapiens, HT-29, 30 μM at 3 days, read-out: inhibition of DNA synthesis
Description: The stilbenes illustrated in FIG. 4 were also used to investigate their ability to inhibit cell proliferation in HT-29 cell line. In this experiment, HT-29 cells (20,000 cells/well in 24-well plate) were treated with the respective stilbenes (each used either at 30 μM or 3 μM) in 10% FBS/DMEM for three days.
as §1
HT-29 cells were plated at a density of 20,000 cells/well in a 24 well plate and treated with varying concentrations of pterostilbene for a period of 1, 2 or 3 days at 37° C. Before harvest, the cells were incubated with 1 μCi [^3H]thymidine for 4 h at 37° C. and were washed with phosphate buffered saline. The cells were precipitated with cold 10% trichloroacetic acid for 10 min and solubilized with 0.5 ml solubilization buffer (0.2 M NaOH, 40 μg/ml salmon sperm DNA) for 2 h at room temperature. The lysate was transferred to 5 ml Ecolume and the [3H]thymidine incorporated into the DNA of HT-29 cells was determined using a scintillation spectrometer (Beckman Coulter, Fullerton, Calif.).

COX-2 mRNA = assay: Quantitative RT-PCR of cytokine-induced COX-2 mRNA in HT-29 cells; conditions: 10 and 30 μM
Description: The cell culture conditions and the reagents used in this example were described in Example 32. The gene-mediated expression of iNOS and COX-2 are reported to be regulated at both the transcriptional and translational levels. In order to understand the effect of pterostilbene on cytokine-induced expression of proinflammatory enzymes and cytokines, RNA samples after treatment of HT-29 cells with cytokines and/or pterostilbene were analyzed by quantitative RT-PCR for the induction of mRNA levels of iNOS, COX-2, IL-1β, IFN-γ and TNF-α genes.
To determine the changes of mRNA levels by pterostilbene and cytokines, quantitative RT-PCR analysis was utilized, as described previously (Lee et al., Mol Pharmacol 2006; 69(6):1840-1848). Briefly, the cells were incubated with compounds for indicated period and the cells were then lysed using Trizol to extract RNA. RNA was reverse transcribed into cDNA using a high capacity cDNA archive kit (Applied Biosystems, Foster City, Calif.). The cDNA was used for quantitative PCR which was run on the ABI Prism […] sequence Detection System. The primers for the iNOS, COX-2, IFN-γ, TNF-α, IL-1β and GAPDH were obtained from Applied Biosystems (Foster City, Calif.).

COc1cc(/C=C/c2ccc(O)cc2)cc(OC)c1 [pterostilbene, (E)-4-(3,5-dimethoxystyryl)phenol]
induction of COX-2 by the cytokine mixture (COX-2; 30 μM, 9, 12 and 15 h): markedly blocked
induction of COX-2 by the cytokine mixture, different concentrations (COX-2; different concentrations): dose-dependent manner
inhibition at 30 µM (HT-29 cells): 71 ± 3%
COX-2 mRNA induction by the cytokine mixture (COX-2 mRNA): strongly inhibited

Source: US8426369B2, “Prevention and treatment of colon cancer” (Rutgers, The State University of New Jersey, priority 2006, dated 2013)
